Experiment [1] has as its target Serine/threonine-protein phosphatase PP1-alpha catalytic subunit (Homo sapiens, UniProt P62136). The experiment is described as follows: inhibition of protein phosphatase 1 activity – biochemical, fluorescence, dose response (AID 2394).
Experiment [2] has as its target T1, Sentrin-specific protease 6 (Homo sapiens, UniProt Q9GZR1).
T1 sequence (Q9GZR1 whole entry): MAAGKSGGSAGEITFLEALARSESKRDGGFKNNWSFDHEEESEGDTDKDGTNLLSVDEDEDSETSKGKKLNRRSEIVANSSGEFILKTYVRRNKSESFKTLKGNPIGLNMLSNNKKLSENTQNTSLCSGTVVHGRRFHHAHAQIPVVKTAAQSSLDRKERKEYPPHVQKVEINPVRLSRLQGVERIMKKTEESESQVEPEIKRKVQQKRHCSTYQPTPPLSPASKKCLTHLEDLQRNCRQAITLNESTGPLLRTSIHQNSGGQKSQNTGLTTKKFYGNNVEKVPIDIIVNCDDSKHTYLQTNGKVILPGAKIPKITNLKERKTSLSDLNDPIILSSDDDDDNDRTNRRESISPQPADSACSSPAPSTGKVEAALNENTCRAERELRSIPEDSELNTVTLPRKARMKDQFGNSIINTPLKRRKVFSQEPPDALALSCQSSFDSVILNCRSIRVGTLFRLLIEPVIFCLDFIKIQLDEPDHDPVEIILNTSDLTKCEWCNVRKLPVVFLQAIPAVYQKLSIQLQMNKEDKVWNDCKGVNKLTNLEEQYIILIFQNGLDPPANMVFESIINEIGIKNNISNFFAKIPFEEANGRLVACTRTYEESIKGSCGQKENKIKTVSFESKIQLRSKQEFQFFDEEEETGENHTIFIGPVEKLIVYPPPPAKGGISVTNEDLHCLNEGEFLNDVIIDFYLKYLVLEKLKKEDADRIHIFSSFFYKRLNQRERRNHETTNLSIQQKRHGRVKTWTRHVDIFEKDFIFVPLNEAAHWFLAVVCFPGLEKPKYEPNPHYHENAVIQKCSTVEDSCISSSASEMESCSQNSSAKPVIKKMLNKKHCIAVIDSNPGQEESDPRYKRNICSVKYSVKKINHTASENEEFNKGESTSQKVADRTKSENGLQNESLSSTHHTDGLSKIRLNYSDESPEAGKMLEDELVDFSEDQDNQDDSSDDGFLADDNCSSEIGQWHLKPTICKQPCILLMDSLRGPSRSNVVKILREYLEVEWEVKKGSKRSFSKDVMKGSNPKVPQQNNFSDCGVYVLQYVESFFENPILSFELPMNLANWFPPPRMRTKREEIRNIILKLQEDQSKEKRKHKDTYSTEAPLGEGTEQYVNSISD
The experiment is described as follows: SAR Analysis of small molecule inhibitors of Sentrin-specific protease 6 (SENP6) using a Luminescent assay. [Related pubchem assays (depositor defined):AID2582, AID2599]. The format is functional.

A short description of experiment [3]: fluconazole-exposed Candida albicans growth modulators – fluorescence, retest, confirmation (AID 2467). The format is functional, cell-based.
Another experiment has as its system Streptococcus. The experiment is described as follows: GAS UMAA2166 growth inhibition – luminescence, BacTiterGlo, counter-screen for streptokinase expression inhibitor project, dose response (AID 1915).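 Also: potency for reduction of bacterial viability or growth.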 The format is functional, organism-based. (In general: The purpose of a counterscreen is to sort out artefacts and off-target activity.)
A short description of experiment [4]: Luminescence Cell-Based Dose Response HTS to Identify Inhibitors of 5'UTR Stem-Loop Driven Prion Protein mRNA Translation in H4 Neuroglioblastoma Cells. [Related pubchem assays: 1827 (Project Summary), 1813 (Primary HTS)]. The class given is functional.
In experiment [5] the target is T2, Heat shock factor protein 1 (Mus musculus, UniProt P38532).
T2 sequence (P38532 whole entry): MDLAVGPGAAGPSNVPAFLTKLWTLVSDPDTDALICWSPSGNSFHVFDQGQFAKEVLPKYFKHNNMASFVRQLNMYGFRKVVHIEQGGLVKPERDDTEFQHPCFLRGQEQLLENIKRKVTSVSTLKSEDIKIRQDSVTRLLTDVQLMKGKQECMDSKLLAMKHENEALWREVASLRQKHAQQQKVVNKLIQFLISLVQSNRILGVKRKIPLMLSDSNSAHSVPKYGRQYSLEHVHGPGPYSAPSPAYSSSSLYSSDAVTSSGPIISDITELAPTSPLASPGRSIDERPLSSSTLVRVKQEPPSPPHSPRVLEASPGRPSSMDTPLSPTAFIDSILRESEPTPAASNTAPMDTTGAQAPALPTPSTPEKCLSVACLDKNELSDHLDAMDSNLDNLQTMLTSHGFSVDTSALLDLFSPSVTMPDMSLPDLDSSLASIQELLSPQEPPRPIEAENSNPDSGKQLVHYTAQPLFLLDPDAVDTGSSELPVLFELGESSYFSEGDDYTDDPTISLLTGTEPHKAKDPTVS
Put plainly: decrease of HSF1-responsive luciferase luminescence – cell-based, NIH3T3, dose retest, confirmation (AID 2382).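 Also: NIH3T3 fibroblasts with HSF1-driven luciferase reporter stressed by proteasome inhibitor MG132; luminescence from HSF1-driven luciferase expression after 8 hours of MG132 stress.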 The format is functional.

The nature of experiment [6]: NIH3T3 cell viability loss – ATP luminescence, mouse fibroblasts, counter-screen, dose response (AID 2010).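 Also: cells exposed to compound for about 90 hours before reading.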 The format is functional, cell-based.
Experiment [7] concerns the target T3, Sphingosine 1-phosphate receptor 4 (Homo sapiens, UniProt O95977).
T3 sequence (O95977 whole entry): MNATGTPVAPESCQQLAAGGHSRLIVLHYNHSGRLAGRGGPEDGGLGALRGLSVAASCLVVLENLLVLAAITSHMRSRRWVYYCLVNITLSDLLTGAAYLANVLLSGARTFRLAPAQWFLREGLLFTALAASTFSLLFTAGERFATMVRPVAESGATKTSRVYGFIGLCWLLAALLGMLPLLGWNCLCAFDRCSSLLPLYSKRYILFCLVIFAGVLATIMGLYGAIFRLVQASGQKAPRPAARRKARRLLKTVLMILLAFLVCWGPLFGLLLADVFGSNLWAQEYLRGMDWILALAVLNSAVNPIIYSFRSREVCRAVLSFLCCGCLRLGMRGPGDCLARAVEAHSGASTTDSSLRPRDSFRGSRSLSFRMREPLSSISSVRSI
Put plainly: Late stage fluorescence dose response cell-based screening assay for antagonists of the Sphingosine 1-Phosphate Receptor 4 (S1P4). [Related pubchem assays: 1524 (Confirmation screen (S1P4 antagonists).), 1510 (Primary screen (S1P4 antagonists).), 1853 (Summary AID (S1P4 antagonists).), 1692 (Dose response screen (S1P4 antagonists).)]. The class given is functional.

The target of another experiment is Beta-galactosidase (Escherichia coli, UniProt Q8VNN2). The format is functional.
Experiment [8] in a line: toxicity toward HepG2 liver cells – cell-based, plate reader, cherry-pick, antagonist series, cytotoxicity control, dose response (AID 743416). The format is functional.
The nature of experiment [9]: viability loss in HEK293 cells – cell-based, plate reader, cherry-picked samples, cytotoxicity control, dose response (AID 743446). The format is functional.

Molecules are shown by their SMILES. Activity calls are given as the source filed them. Rule as the data show it, for most assays here: actives have a measured EC50 and inactives only a lower limit.

Sequence of Beta-galactosidase (Q8VNN2 whole entry): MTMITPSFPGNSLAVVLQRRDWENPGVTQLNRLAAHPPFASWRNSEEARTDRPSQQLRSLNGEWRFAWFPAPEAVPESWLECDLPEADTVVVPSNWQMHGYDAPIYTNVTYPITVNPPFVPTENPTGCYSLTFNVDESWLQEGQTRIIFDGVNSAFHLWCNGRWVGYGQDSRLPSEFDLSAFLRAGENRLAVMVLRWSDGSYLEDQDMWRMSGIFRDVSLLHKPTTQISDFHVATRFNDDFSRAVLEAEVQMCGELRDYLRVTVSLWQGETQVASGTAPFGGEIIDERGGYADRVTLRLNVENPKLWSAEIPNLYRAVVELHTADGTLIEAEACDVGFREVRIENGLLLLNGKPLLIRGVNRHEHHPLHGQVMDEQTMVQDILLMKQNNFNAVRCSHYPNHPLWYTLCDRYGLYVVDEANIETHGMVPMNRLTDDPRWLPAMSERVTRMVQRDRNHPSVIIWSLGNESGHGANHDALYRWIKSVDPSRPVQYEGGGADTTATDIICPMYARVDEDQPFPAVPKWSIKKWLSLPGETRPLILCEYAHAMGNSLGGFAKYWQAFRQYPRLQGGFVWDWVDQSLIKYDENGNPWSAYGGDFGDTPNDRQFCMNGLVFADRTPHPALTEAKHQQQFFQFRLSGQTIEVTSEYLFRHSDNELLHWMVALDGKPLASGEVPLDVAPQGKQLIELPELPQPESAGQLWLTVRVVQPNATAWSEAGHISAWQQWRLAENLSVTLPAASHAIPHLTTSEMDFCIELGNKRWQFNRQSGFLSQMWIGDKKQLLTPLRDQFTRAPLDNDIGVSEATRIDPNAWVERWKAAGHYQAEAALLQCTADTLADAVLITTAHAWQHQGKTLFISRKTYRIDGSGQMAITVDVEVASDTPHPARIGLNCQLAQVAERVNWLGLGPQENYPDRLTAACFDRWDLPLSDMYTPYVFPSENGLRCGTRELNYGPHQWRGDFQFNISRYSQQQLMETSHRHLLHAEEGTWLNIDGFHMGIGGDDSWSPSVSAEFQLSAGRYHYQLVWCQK
Sequence of Serine/threonine-protein phosphatase PP1-alpha catalytic subunit (P62136 whole entry): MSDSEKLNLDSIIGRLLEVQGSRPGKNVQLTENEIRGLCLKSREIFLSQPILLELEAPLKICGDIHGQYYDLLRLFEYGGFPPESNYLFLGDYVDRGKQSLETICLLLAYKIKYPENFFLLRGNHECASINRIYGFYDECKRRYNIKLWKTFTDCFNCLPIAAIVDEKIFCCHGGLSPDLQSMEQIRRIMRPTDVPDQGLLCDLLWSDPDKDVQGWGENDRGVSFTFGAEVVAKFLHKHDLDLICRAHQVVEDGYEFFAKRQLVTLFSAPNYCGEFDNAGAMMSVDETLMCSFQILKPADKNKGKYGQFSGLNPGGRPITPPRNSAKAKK

For the compound `Oc1ccc(/C=N\Nc2cc(N3CCOCC3)nc(N3CCOCC3)n2)c(O)c1`, the IC50 was > 67 µM (not active) in experiment [1] and 31.8 µM (active) in [2].
As to `Cc1ccc(C)c(S(=O)(=O)N2CCN(Cc3ccc(O)c4ncccc34)CC2)c1`, the EC50 in experiment [3] is 1.14 µM (active); in the experiment on Streptococcus, 15 µM (active).
As for `COc1cc(NC(=O)Cn2ncc(Cl)c(Cl)c2=O)c(C)cc1[N+](=O)[O-]`, the EC50 in experiment [4] is 9.83 µM (active); in experiment [5] it was 4.33 µM (active); in [6], 3.17 µM (active); on Beta-galactosidase, > 31.5 µM (inactive). In experiment [7], the concentration for half-maximal inhibition (IC50) is 6.74 µM (not active). The AC50 was 9.1 µM (active) in experiment [8] and 6.28 µM (active) in experiment [9].

By IC50 is commonly meant the midpoint of a concentration-inhibition curve. Usually EC50 stands for the concentration at which the effect is half-maximal. Broadly, the AC50 is the concentration at which the activity in the assay is half-maximal.

The values above are taken from ChEMBL document CHEMBL1201862, “PubChem BioAssay data set” (2004).
